What was measured:
Test in all cases: relative viability (nuclei count vs DMSO), 5 days (fraction); higher = more cells survive
[1] = compound: CN(C)CC1=CC(=CC=C1)N=C(C2=CC=CC=C2)C3=C(NC4=C3C=CC(=C4)C(=O)N(C)C)O + CC(=O)c1c(C)c2cnc(Nc3ccc(N4CCNCC4)cn3)nc2n(C2CCCC2)c1=O [Palbociclib] (partner 0.5 µM)
Summary of the method: (§1)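 Five library-drug doses in √10 steps were combined with a fixed anchor-drug dose, or a single drug was given alone, by pin tool to lung cancer cell lines in 1536-well plates the day after seeding. Nuclei were stained and counted after 5 days. Relative viability is the nuclei count in treated wells over that in vehicle wells, taken as the median of duplicate plates.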

[2] = compound: CN(C)CC1=CC(=CC=C1)N=C(C2=CC=CC=C2)C3=C(NC4=C3C=CC(=C4)C(=O)N(C)C)O + C[C@@H](Oc1cc(-c2cnn(C3CCNCC3)c2)cnc1N)c1c(Cl)ccc(F)c1Cl [Crizotinib] (partner 1 µM)
Summary of the method: as §1

[3] = compound: CN(C)CC1=CC(=CC=C1)N=C(C2=CC=CC=C2)C3=C(NC4=C3C=CC(=C4)C(=O)N(C)C)O + NC(=O)Nc1cc(-c2cccc(F)c2)sc1C(=O)N[C@H]1CCCNC1 [AZD7762] (partner 0.2 µM)
Summary of the method: as §1

[4] = compound: CN(C)CC1=CC(=CC=C1)N=C(C2=CC=CC=C2)C3=C(NC4=C3C=CC(=C4)C(=O)N(C)C)O + O=C(CCCCCCC(=O)Nc1ccccc1)NO [Vorinostat] (partner 1 µM)
Summary of the method: as §1

| Cell Line | relative viability ([1]; first compound 0.08 µM) | relative viability ([1]; first compound 0.253 µM) | relative viability ([1]; first compound 0.8 µM) | relative viability ([1]; first compound 2.53 µM) | relative viability ([1]; first compound 8 µM) | relative viability ([2]; first compound 0.08 µM) | relative viability ([2]; first compound 0.253 µM) | relative viability ([2]; first compound 0.8 µM) | relative viability ([2]; first compound 2.53 µM) | relative viability ([2]; first compound 8 µM) | relative viability ([3]; first compound 0.08 µM) | relative viability ([3]; first compound 0.253 µM) | relative viability ([3]; first compound 0.8 µM) | relative viability ([3]; first compound 2.53 µM) | relative viability ([3]; first compound 8 µM) | relative viability ([4]; first compound 0.08 µM) | relative viability ([4]; first compound 0.253 µM) | relative viability ([4]; first compound 0.8 µM) | relative viability ([4]; first compound 2.53 µM) | relative viability ([4]; first compound 8 µM) |
| --- | --- | --- | --- | --- | --- | --- | --- | --- | --- | --- | --- | --- | --- | --- | --- | --- | --- | --- | --- | --- |
| NCI-H647 | 0.431 | 0.433 | 0.471 | 0.45 | 0.382 | 1.01 | 0.987 | 1.08 | 0.727 | 0.671 | 0.513 | 0.483 | 0.463 | 0.48 | 0.445 | 0.477 | 0.561 | 0.423 | 0.421 | 0.649 |
| NCI-H650 | 0.319 | 0.371 | 0.387 | 0.355 | 0.364 | 0.772 | 0.647 | 0.677 | 0.561 | 0.645 | 1.4 | 0.938 | 1.16 | 0.897 | 0.855 | 0.452 | 0.553 | 0.557 | 0.418 | 0.395 |
| NCI-H727 |  | 0.617 | 0.593 | 0.391 | 0.74 | 0.772 | 0.808 | 0.78 | 0.795 | 0.699 |  | 0.546 | 0.577 | 0.867 | 0.583 |  | 0.972 | 1.35 | 1.45 | 1.23 |
| NCI-H838 | 0.253 | 0.243 | 0.199 | 0.198 | 0.177 | 0.825 | 0.784 | 0.861 | 0.659 | 0.755 | 0.951 | 0.928 | 0.948 | 0.831 | 0.903 | 0.722 | 0.726 | 0.716 | 0.703 | 0.597 |
| NCI-H1355 | 0.425 | 0.399 | 0.305 | 0.4 | 0.4 | 1.1 | 1.05 | 1.06 | 1.03 | 1.06 | 0.869 | 0.665 | 0.597 | 0.541 | 0.641 | 0.633 | 0.688 | 0.558 | 0.608 | 0.576 |
| NCI-H1437 | 0.339 | 0.365 | 0.317 | 0.331 | 0.368 | 0.898 | 0.949 | 0.992 | 0.813 | 0.959 | 1.19 | 1.16 | 1.16 | 1.03 | 1.12 | 0.918 | 0.886 | 0.975 | 0.943 | 1.1 |
| NCI-H1651 | 0.526 | 0.505 | 0.554 | 0.521 | 0.494 | 0.884 | 0.844 | 0.873 | 0.835 | 0.822 | 0.483 | 0.474 | 0.414 | 0.435 | 0.397 | 0.558 | 0.547 | 0.573 | 0.599 | 0.593 |
| NCI-H1666 | 0.617 | 0.652 | 0.684 | 0.681 | 0.73 | 1.24 | 1.04 | 0.933 | 1.14 | 1.13 | 0.908 | 0.857 | 0.847 | 0.764 | 0.852 | 1.06 | 1.09 | 0.956 | 1.01 | 1.34 |
| NCI-H1734 | 0.39 | 0.353 | 0.346 | 0.31 | 0.31 | 0.7 | 0.651 | 0.597 | 0.667 | 0.557 | 0.644 | 0.532 | 0.506 | 0.56 | 0.526 | 0.909 | 0.829 | 0.828 | 0.86 | 0.66 |
| NCI-H1755 | 0.438 | 0.45 | 0.426 | 0.452 | 0.439 | 0.792 | 0.897 | 0.789 | 0.758 | 0.825 | 0.374 | 0.383 | 0.481 | 0.452 | 0.411 | 0.739 | 0.768 | 0.717 | 0.715 | 0.766 |
| NCI-H1915 | 0.533 | 0.528 | 0.555 | 0.537 | 0.48 | 0.886 | 0.885 | 0.989 | 0.832 | 0.848 | 0.704 | 0.729 | 0.756 | 0.699 | 0.578 | 0.528 | 0.512 | 0.501 | 0.516 | 0.415 |
| NCI-H1944 | 0.32 | 0.344 | 0.282 | 0.357 | 0.33 | 1.06 | 1.04 | 1.06 | 1.08 | 1.11 | 0.56 | 0.576 | 0.419 | 0.525 | 0.434 | 0.737 | 0.589 | 0.571 | 0.455 | 0.469 |
| NCI-H1975 | 0.646 | 0.398 | 0.456 | 0.574 | 0.339 | 0.969 | 1.07 | 0.842 | 0.859 | 0.822 | 0.756 | 0.761 | 0.68 | 0.692 | 0.707 | 0.709 | 0.669 | 0.705 | 0.661 | 0.604 |
| NCI-H1993 | 0.63 | 0.615 |  | 0.75 | 0.592 | 0.761 | 0.845 | 0.628 | 0.89 | 0.876 | 0.59 | 0.705 |  | 0.937 | 0.877 | 0.904 | 0.79 |  | 1.14 | 0.994 |

Source: the supplement of paper PMC10307832
